Results reported in patent publication US20240041842A1, “PHARMACEUTICAL COMPOSITION FOR INHIBITING CANCER METASTASIS” (INDUSTRY-ACADEMIC COOPERATION FOUNDATION, YONSEI UNIVERSITY, priority 2021, published 2024).

What was measured:
Format in all cases: cell-based, human
SNAI1 gene = assay: Real-time PCR of SNAI1 gene; conditions: HBEC-KL; 10 mM acetate, 24 hours
Experimental: (§1) After synthesizing complementary DNA (cDNA) using the TOPscript·8 cDNA synthesis kit (Enzynomics, EZ0054), gRT-PCR was performed with TCPreal™ gRCR 2× PreMIX (SYBR Green with low ROX) (Enzynomics, RT501M). GAPDH and beta-actin were used for RNA normalization. qRT-PCR was performed with a StepOne Plus (Applied Biosystems) instrument.

LC3 = assay: Autophagic flux (LC3 Western blot, mRFP-GFP-LC3 lysosomal delivery assay); conditions: HBEC-KL; 10 mM acetate 24 hours or 3 uM SAHA
Experimental: (§2) Representative GFP-LC3, RFP-LC3 and overlapping images are shown. In addition, red puncta (mRFP+/GFP−) and yellow puncta (mRFP+/GFP+) per cell were quantified and graphed (n=15 cells/treatment). Cells were harvested, washed with PBS, and lysed on ice with RIPA buffer containing protease and phophatase inhibitor cocktail (GenDEPOT). After 15 minutes of incubation, the cell lysates were centrifuged at 15,000 rpm at 4° C. for 10 minutes. Protein concentration was measured by Bradford assay (Bio-rad, 500-0006). Equal amounts of total protein were placed on an SDS gel electrophoresis and transferred to a PVDF membrane (Bio-rad). The membrane was blocked with 5% skim milk for 1 hour at room temperature and incubated overnight at 4° C. with primary antibody in a buffer containing 0.1% Tween-20. Subsequently, the membrane was washed three times with Tween-PBS buffer and incubated for 1 hour at room temperature using a secondary antibody diluted in blocking buffer containing 0.1% Tween-20. Subsequently, the membrane was washed three times for 10 minutes each using Tween-TBS. Densitometry of Western blots was measured using ImageJ software.

HBEC-KL cell line = assay: Matrigel invasion assay, HBEC-KL cell line
Experimental: (§3) For the 2D invasion assay, the inserts were pre-coated with 300 μg/ml Matrigel (Coming, 354234). After staining with […] dye (Bio-Rad, 1450013), 1×10^5 live cells per 8-um-pore cell-culture insert (Costar. 3422) were seeded in 0.5% ACL medium. 10% ACL medium was added to the outside of the insert. In the case of lung cancer and pancreatic cancer cell lines, after inoculation in 1% RPMI medium, 20% RPMI medium was added to the outside of the insert. Plates were incubated for 24 hours at 37° C. After incubation, the insert was fixed with 3.7% PFA, washed, stained with 0.4% crystal violet, and the upper membrane was washed and dried.

Snail [1] = assay: Western blot of Snail protein
Experimental: as §2, with “Cells” for “Representative GFP-LC3, RFP-LC3 and overlapping images are shown. In addition, red puncta (mRFP+/GFP−) and yellow puncta (mRFP+/GFP+) per cell were quantified and graphed (n=15 cells/treatment). Cells”
[…] For autophagy activation, cells were'treated with 2 μM rapamycin (Selleckchem, S1039) for 5 hours. Modulation of intracellular ROS was performed with N-acetyl-cysteine (10 mM) (Sigma, A7250), hydrogen peroxide solution (100 μM to 200 μM) (Sigma, 216763), or CDDO-ME NRF2 activator (50 nM, 100 nM) (Sellckchem, S8078) for 4 to 24 hours. Intercellular calcium signal control was performed for 1 hour using BAPTA-AM (20 μM) (Sigma, A1076) or Calmidazolium Chloride (2.5 μM) (Sigma, C3930). […] For TFEB protein phosphorylation, tacrolimus (1 μM) (Selleckchem, S5003) was treated for 1 hour. […] During siRNA treatment, each siRNA was treated to a concentration of 40 to 50 nM and treated together with Lipofectamine RNAiMax (Thermo Fisher Scientific, 13778150) for transformation, and were used for experiments 48 to 72 hours later. For cDNA treatment, each cDNA was treated to a concentration of 1 to 2 μg in a 6-well plate and treated with Lipofectamine 2000 (Thermo Fisher Scientific, 11668019) for transformation, and were used for experiments 24 hours later.

TFEB [2] = assay: Western blot / immunoprecipitation-immunoblot of TFEB (acetylated, phosphorylated, total); conditions: HBEC-KL; for reduced TFEB protein level in the chloroquine (CQ) treatment condition: 50 uM CQ 24 hours with 10 mM acetate 24 hours or 3 uM SAHA 15 hours; for acetylated TFEB level / phosphorylated TFEB level / total TFEB protein level: 10 mM acetate 24 hours or 3 μM SAHA
Experimental: FIG. 11J illustrates a diagram of immunoblot results of the […] a control (left), and the immunoprecipitation-immunoblot result of TFEB acetylated HBEC-KL cells under the same conditions (right) is also shown,
as §2, with “Cells” for “Representative GFP-LC3, RFP-LC3 and overlapping images are shown. In addition, red puncta (mRFP+/GFP−) and yellow puncta (mRFP+/GFP+) per cell were quantified and graphed (n=15 cells/treatment). Cells”
(§4) For immunoprecipitation, equal amounts of lysate and Co-IP buffer (40 mM HEPES, pH 7.4, 120 mM NaCl, 2 mM EDTA, 0.3% CHAPS (Sigma, 10810118001), 10 mM pyrophosphate (Sigma, 221368), 10 mM glycerophosphate (Sigma, G9422), 50 mM NaF, phosphatase and protease inhibitor mixture) were mixed. Cell lysates (1 μg protein) were incubated overnight at 4° C. on anti-FLAG® M2 Affinity Gel (Sigma, A2220) or anti-acetyl-lysine antibody coated agarose (ImmuneChem Pharmaceuticals, ICP0388). The immunoprecipitate was then washed three times in IP buffer, and the immunoprecipitated complex was dissolved and separated by boiling in IP buffer for 5 minutes.

TFEB [3] = assay: Immunofluorescence of TFEB localization; conditions: HBEC-KL; 10 mM acetate 24 hours or 3 uM SAHA 5 hours
Experimental: Cells were seeded onto coated glass coverslips and maintained in ACL medium for 48 hours. After washing the cells three times with PBS. they were incubated in 3.7% paraformaldehyde for 10 minutes and fixed. Thereafter, the cells were washed three times with PBS and subjected to cell permeabilizaton in PBS containing 0.1% Triton X-100 for 10 minutes. After washing with PBS three times, the sample was blocked for 30 minutes at room temperature with PBS containing 0.1% Triton X-100 and 5% goat serum. Samples were incubated with primary antibody (1:150). followed by incubation with anti-rabbit/mouse Alexa Fluor 488/568 secondary antibody (Thermo Fisher Scientific, A-11001, 11004, 11008. 11011) and ProLong Gold Antifade Mountant with DAPI (Thermo Fisher Scientific, P36931), Images were taken with an Axio imager M2 microscope (Carl Zeiss, […]) equipped with a 63× oil objective and analyzed with ZEN version 3.0 software.

phospho-RPS6 (p-S6) = assay: Western blot of phospho-RPS6 (p-S6); conditions: HBEC-KL; acetate or SAHA treatment
Experimental: as §2, with “Cells” for “Representative GFP-LC3, RFP-LC3 and overlapping images are shown. In addition, red puncta (mRFP+/GFP−) and yellow puncta (mRFP+/GFP+) per cell were quantified and graphed (n=15 cells/treatment). Cells”

TFEB gene = assay: Real-time PCR of TFEB gene; conditions: HBEC-KL; 10 mM acetate 24 hours or 3 uM SAHA 15 hours
Experimental: as §1, with “At 72 hours after siRNA transfection (post-transfection) and 12 to 24 hours after chemical treatment, total RNA was isolated with the RNeasy miniprep kit (QIAGEN, 74134). After” for “After”

acetylated Snail = assay: Immunoprecipitation-immunoblot of acetylated Snail; conditions: HBEC-KL
Experimental: Cell lysates (1 μg protein) were incubated overnight at 4° C. on anti-FLAG® M2 Affinity Gel (Sigma, A2220) or anti-acetyl-lysine antibody coated agarose (ImmuneChem Pharmaceuticals, ICP0388). The immunoprecipitate was then washed three times in IP buffer, and the immunoprecipitated complex was dissolved and separated by boiling in IP buffer for 5 minutes.
For SDS-PAGE electrophoresis, the immunoprecipitated complex was transferred to a nitrocellulose membrane and the membrane was blocked and then incubated for 1 hour at room temperature with Primary antibody and secondary antibody (VeriBlot for IP Detection Reagent (HRP) (Abcam, #ab131366), and anti-mouse IgG tor IP (HRP) (Abeam, #ab131368)).
After washing 3 times, the membrane was incubated with the secondary antibody.

Snail [4] = assay: Immunoprecipitation-immunoblot of phosphorylated/acetylated or K48 polyubiquitinated Snail in A549 cells; conditions: 25 uM C646 or 3 uM SAHA
Experimental: FIG. 9K illustrates the immunoprecipitation-immunoblot result of phosphorylated/acetylated or K48 polyubiquitinated Snail assay after transfection of wild-type Snail (pFLAG-Snail WT) or acetylation-defective Snail mutant (pFLAG-SnailK146R) into A549 cells and/or treatment with 25 uM C646.
FIG. 9L illustrates the immunoprecipitation-immunoblot results of the polyubiquitinated Snail assay after transfection of HA-ubiquitin and wild-type Snail (pFLAG-Snail WT) or acetylation-defective Snail mutant (pFLAG-SnailK146R) into A549 cells and/or treatment with 25 uM C646 for 2 hours (left) and/or treatment of 3 uM SAHA for 5 hours (right).
as §4

Snail [5] = assay: Western blot of Snail protein; conditions: HBEC-KL
TFEB (CLEAR network) = assay: CLEAR motif-driven luciferase reporter assay; conditions: HBEC-KL
Experimental: To compare the TFEB reporter activity with other cell lines (HBEC30KT, HBEC-K, and HBEC-KL), the pGL4.70 5× CLEAR Rluc and pSt4.14 Fluc vectors were transiently co-transfected and normalized luciferase activity was measured in Dual-Measured by Luciferase® Reporter Assay System (Promega, E1910),

KL cell lines = assay: Matrigel invasion assay, KL cell lines; conditions: in two of the three KL cell lines; AMG-510 1 uM
Experimental: as §3

β-catenin = assay: Western blot of β-catenin; conditions: HBEC-KL; CHIR99021 3 uM, 5 hours, in the presence of 50 uM CQ
Experimental: as §2, with “FIG. 5K illustrates the expression level of Snail protein after treatment with the GSK3β inhibitor CHIR99021 (3 uM, treatment for 5 hours) in the presence of 50 uM chloroquine (CQ) in the HBEC-KL” for “Representative GFP-LC3, RFP-LC3 and overlapping images are shown. In addition, red puncta (mRFP+/GFP−) and yellow puncta (mRFP+/GFP+) per”, “line.” for “were quantified and graphed (n=15 cells/treatment).”

Compound: CC(=O)[O-].[Na+] [acetate, sodium acetate]
- Snail mRNA expression levels (SNAI1 gene): no effect
- autophagy flux (LC3): increased
- invasiveness (HBEC-KL cell line; KL cells (HBEC-KL), 10 mM acetate, 24 hours): increased
- Snail protein expression levels (Snail [1]; HBEC-KL, acetate, 24 hours): increased
- reduced TFEB protein level in the chloroquine (CQ) treatment condition (TFEB [2]): partially restored
- acetylated TFEB level (TFEB [2]): increased
- phosphorylated TFEB level (TFEB [2]): increased
- total TFEB protein level (TFEB [2]): increased
- level of nuclear-localized TFEB (TFEB [3]): increased
- level of phospho-RPS6 (p-S6) (phospho-RPS6 (p-S6)): kept constant
- TFEB mRNA level (TFEB gene): no significant change
- level of acetylated Snail (acetylated Snail; 10 mM acetate, 24 hours): increased

Compound: O=C(CCCCCCC(=O)Nc1ccccc1)NO [SAHA, vorinostat]
- autophagy flux (LC3): increased
- degree of matrigel-infiltration (HBEC-KL cell line; HBEC-KL, SAHA): increased
- reduced TFEB protein level in the chloroquine (CQ) treatment condition (TFEB [2]): partially restored
- acetylated TFEB level (TFEB [2]): increased
- phosphorylated TFEB level (TFEB [2]): increased
- total TFEB protein level (TFEB [2]): increased
- K48 polyubiquitination of wild-type Snail (Snail [4]; pFLAG-Snail WT): reduced
- phosphorylation of wild-type Snail (Snail [4]; pFLAG-Snail WT): reduce
- phosphorylation and acetylation of K146R Snail (Snail [4]; pFLAG-SnailK146R): did not affect
- level of nuclear-localized TFEB (TFEB [3]): increased
- level of phospho-RPS6 (p-S6) (phospho-RPS6 (p-S6)): kept constant
- TFEB mRNA level (TFEB gene): no significant change
- level of acetylated Snail (acetylated Snail; 3 uM SAHA, 15 hours): increased
- Snail reduction by chloroquine (CQ), upon SAHA treatment (Snail [5]; 3 uM SAHA and 50 uM CQ, 24 hours): restored
- CLEAR activity under FK506 treatment (TFEB (CLEAR network); 1 uM FK506 with 10 mM acetate 24 hours or 3 uM SAHA 15 hours): increased
- CLEAR activity (TFEB (CLEAR network); 10 mM acetate 24 hours or 3 uM SAHA 5 hours): increased

Compound: C=CC(=O)N1CCN(c2nc(=O)n(-c3c(C)ccnc3C(C)C)c3nc(-c4c(O)cccc4F)c(F)cc23)[C@@H](C)C1 [AMG-510]
- cell invasiveness (KL cell lines): increased
- Snail expression level (Snail [1]; in two of the three KL cell lines, AMG-510 1 uM, 48 hours): increased

Compound: Cc1c[nH]c(-c2cnc(NCCNc3ccc(C#N)cn3)nc2-c2ccc(Cl)cc2Cl)n1 [CHIR99021]
- expression levels of β-catenin under autophagy inhibition (β-catenin): restored
- levels of Snail protein under autophagy inhibition (Snail [5]; CHIR99021 3 uM, 5 hours, in the presence of 50 uM CQ): did not restore
